Data as given in patent publication US11046681B2, “Substituted piperidines for the treatment of cancer” (LES LABORATOIRES SERVIER, priority 2016, dated 2021).

molecular target: His-His-USP7 (aa208-560, [C315A]) (Homo sapiens (Human), UniProt Q93009, C315A); assay: Evaluation of the inhibition of USP7 by Fluorescence Intensity (FLINT) readings; type: biochemical; conditions: 0.25 nM USP7, 60 minutes at 30° C. preincubation, 500 nM Ubiquitin-Rhodamine-110 substrate, 50% reduction in kinetic rate
Experimental: USP7 activity was measured using Rhodamine-110 c-terminal labelled Ubiquitin as a substrate (Viva Biosciences). Incubation with USP7 results in the release of Rhodamine-110 leading to an increase in fluorescence which can be used in the continuous measurement of USP7 activity.
The USP7 reactions were performed in a 50 μL volume, in 384 well black solid low binding plates (Corning #3575). The reaction buffer consisted of 100 mM Bicine pH 8.0, 0.01% TritonX100, 1 mM TCEP, and 10% DMSO.
0.25 nM His-His-USP7 (aa208-560, [C315A]) was incubated with compound (final concentration 10% DMSO) for 60 minutes at 30° C. The reaction was then initiated by the addition of 500 nM Ubiquitin-Rhodamine-110 substrate and the plate read every 3 minutes for 21 minutes to measure the release of Rhodamine-110. Fluorescence Intensity (FLINT) readings were measured using a […] Neo plate reader (Ex.485 nm, Em.535 nm).
The inhibition of increasing doses of compound was expressed as a percentage reduction in kinetic rate compared to the kinetic rates established between ‘DMSO only’ and ‘total inhibition’ controls (no USP7). The inhibitory concentrations that gave a 50% reduction in kinetic rate (IC50) were determined, from 11-point dose response curves, in XL-Fit using a 4-Parameter Logistic Model (Sigmoidal Dose-Response Model).

Sequence of His-His-USP7 (aa208-560, [C315A]) (Q93009 208-560 C315A): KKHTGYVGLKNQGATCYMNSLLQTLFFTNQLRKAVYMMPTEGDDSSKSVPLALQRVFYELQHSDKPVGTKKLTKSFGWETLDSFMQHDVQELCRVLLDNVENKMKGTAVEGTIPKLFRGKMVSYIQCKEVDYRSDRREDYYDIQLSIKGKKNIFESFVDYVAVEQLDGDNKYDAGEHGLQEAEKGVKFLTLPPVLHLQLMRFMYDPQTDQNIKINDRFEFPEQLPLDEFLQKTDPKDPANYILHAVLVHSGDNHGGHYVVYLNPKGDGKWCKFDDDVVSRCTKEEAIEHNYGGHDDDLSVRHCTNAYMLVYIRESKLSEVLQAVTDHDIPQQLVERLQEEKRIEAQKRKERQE

Row | Compound | IC50 [nM]
1 | CC(C)(C)C(=O)N1CC[C@@H](C(=O)N2CCC(O)(Cn3cnc4c(ccn4-c4ccccc4)c3=O)CC2)[C@H](c2ccccc2)C1 [EXAMPLE 184, 3-[[1-[(3R,4R)-1-(2,2-dimethylpropanoyl)-3-phenyl-piperidine-4-carbonyl]-4-hydroxy-4-piperidyl]methyl]-7-phenyl-pyrrolo[2,3-d]pyrimidin-4-one] | 83
2 | CN1CC[C@@H](C(=O)N2CCC(O)(Cn3cnc4c(ccn4-c4ccc(F)cc4)c3=O)CC2)[C@H](c2ccccc2)C1 [EXAMPLE 141, 7-(4-fluorophenyl)-3-[[4-hydroxy-1-[(3R,4R)-1-methyl-3-phenyl-piperidine-4-carbonyl]-4-piperidyl]methyl]pyrrolo[2,3-d]pyrimidin-4-one] | 74.8
3 | COc1ccc(-n2ncc3c(=O)n(CC4(O)CCN(C(=O)[C@@H]5CCN(C(=O)OC(C)(C)C)C[C@H]5c5ccccc5)CC4)cnc32)cc1 [EXAMPLE 44, tert-butyl (3R,4R)-4-[4-hydroxy-4-[[1-(4-methoxyphenyl)-4-oxo-pyrazolo[3,4-d]pyrimidin-5-yl]methyl]piperidine-1-carbonyl]-3-phenyl-piperidine-1-carboxylate] | 61.5
4 | CN1CC[C@@H](C(=O)N2CCC(O)(Cn3cnc4c(ccn4-c4cccc(Cl)c4)c3=O)CC2)[C@H](c2ccccc2)C1 [EXAMPLE 152, 7-(3-chlorophenyl)-3-[[4-hydroxy-1-[(3R,4R)-1-methyl-3-phenyl-piperidine-4-carbonyl]-4-piperidyl]methyl]pyrrolo[2,3-d]pyrimidin-4-one] | 64.8
5 | O=C([C@@H]1CCN(CC(F)(F)F)C[C@H]1c1ccccc1)N1CCC(O)(Cn2cnc3[nH]ccc3c2=O)CC1 [EXAMPLE 117, 3-[[4-hydroxy-1-[(3R,4R)-3-phenyl-1-(2,2,2-trifluoroethyl)piperidine-4-carbonyl]-4-piperidyl]methyl]-7H-pyrrolo[2,3-d]pyrimidin-4-one] | 1200
6 | CC(=O)N1CC[C@@H](C(=O)N2CCC(O)(Cn3cnc4c(ccn4-c4ccccc4)c3=O)CC2)[C@H](c2ccccc2)C1 [EXAMPLE 147, 3-[[1-[(3R,4R)-1-acetyl-3-phenyl-piperidine-4-carbonyl]-4-hydroxy-4-piperidyl]methyl]-7-phenyl-pyrrolo[2,3-d]pyrimidin-4-one] | 406
7 | CN1CC[C@@H](C(=O)N2CCC(O)(Cn3cnc4c(ccn4-c4ccccc4)c3=O)CC2)[C@H](c2ccccc2)C1 [EXAMPLE 121, 3-[[4-hydroxy-1-[(3R,4R)-1-methyl-3-phenyl-piperidine-4-carbonyl]-4-piperidyl]methyl]-7-phenyl-pyrrolo[2,3-d]pyrimidin-4-one] | 140
8 | COc1ccc(-n2ccc3c(=O)n(CC4(O)CCN(C(=O)[C@@H]5CCN(C(C)=O)C[C@H]5c5ccccc5)CC4)cnc32)cc1 [EXAMPLE 178, 3-[[1-[(3R,4R)-1-acetyl-3-phenyl-piperidine-4-carbonyl]-4-hydroxy-4-piperidyl]methyl]-7-(4-methoxyphenyl)pyrrolo[2,3-d]pyrimidin-4-one] | 96.1
9 | COc1cccc(-n2ccc3c(=O)n(CC4(O)CCN(C(=O)[C@@H]5CCN(C(C)=O)C[C@H]5c5ccccc5)CC4)cnc32)c1 [EXAMPLE 179, 3-[[1-[(3R,4R)-1-acetyl-3-phenyl-piperidine-4-carbonyl]-4-hydroxy-4-piperidyl]methyl]-7-(3-methoxyphenyl)pyrrolo[2,3-d]pyrimidin-4-one] | 88.4
10 | CC(=O)N1CC[C@@H](C(=O)N2CCC(O)(Cn3cnc4c(ccn4-c4cccc(Cl)c4)c3=O)CC2)[C@H](c2ccccc2)C1 [EXAMPLE 180, 3-[[1-[(3R,4R)-1-acetyl-3-phenyl-piperidine-4-carbonyl]-4-hydroxy-4-piperidyl]methyl]-7-(3-chlorophenyl)pyrrolo[2,3-d]pyrimidin-4-one] | 89
11 | COc1ccc(-n2ncc3c(=O)n(CC4(O)CCN(C(=O)[C@@H]5CC[N+](C)(C)C[C@H]5c5ccccc5)CC4)cnc32)cc1 [EXAMPLE 169, 5-[[1-[(3R,4R)-1,1-dimethyl-3-phenyl-piperidin-1-ium-4-carbonyl]-4-hydroxy-4-piperidyl]methyl]-1-(4-methoxyphenyl)pyrazolo[3,4-d]pyrimidin-4-one] | 860
12 | CC(C)(C)CC(=O)N1CC[C@@H](C(=O)N2CCC(O)(Cn3cnc4c(ccn4-c4ccccc4)c3=O)CC2)[C@H](c2ccccc2)C1 [EXAMPLE 187, 3-[[1-[(3R,4R)-1-(3,3-dimethylbutanoyl)-3-phenyl-piperidine-4-carbonyl]-4-hydroxy-4-piperidyl]methyl]-7-phenyl-pyrrolo[2,3-d]pyrimidin-4-one] | 88.5
13 | COc1cccc(-n2ccc3c(=O)n(CC4(O)CCN(C(=O)[C@@H]5CCNC[C@H]5c5ccccc5)CC4)cnc32)c1 [EXAMPLE 136, 3-[[4-hydroxy-1-[(3R,4R)-3-phenylpiperidine-4-carbonyl]-4-piperidyl]methyl]-7-(3-methoxyphenyl)pyrrolo[2,3-d]pyrimidin-4-one] | 48.6
14 | COc1cc(-n2ccc3c(=O)n(CC4(O)CCN(C(=O)[C@@H]5CCN(C(=O)OC(C)(C)C)C[C@H]5c5ccccc5)CC4)cnc32)ccc1F [EXAMPLE 57, tert-butyl (3R,4R)-4-[4-[[7-(4-fluoro-3-methoxy-phenyl)-4-oxo-pyrrolo[2,3-d]pyrimidin-3-yl]methyl]-4-hydroxy-piperidine-1-carbonyl]-3-phenyl-piperidine-1-carboxylate] | 70.2
15 | O=C([C@@H]1CCNC[C@H]1c1ccccc1)N1CCC(O)(Cn2cnc3c(cnn3-c3ccccc3)c2=O)CC1 [EXAMPLE 103, 5-[[4-hydroxy-1-[(3R,4R)-3-phenylpiperidine-4-carbonyl]-4-piperidyl]methyl]-1-phenyl-pyrazolo[3,4-d]pyrimidin-4-one] | 52.9
16 | O=C([C@@H]1CCNC[C@H]1c1ccccc1)N1CCC(O)(Cn2cnc3c(ccn3-c3cccc(Cl)c3)c2=O)CC1 [EXAMPLE 142, 7-(3-chlorophenyl)-3-[[4-hydroxy-1-[(3R,4R)-3-phenylpiperidine-4-carbonyl]-4-piperidyl]methyl]pyrrolo[2,3-d]pyrimidin-4-one] | 56.7
17 | CC(C)(C)OC(=O)N1CC[C@@H](C(=O)N2CCC(O)(Cn3cnc4c(ccn4-c4ccccn4)c3=O)CC2)[C@H](c2ccccc2)C1 [EXAMPLE 15, tert-butyl (3R,4R)-4-[4-hydroxy-4-[[4-oxo-7-(2-pyridyl)pyrrolo[2,3-d]pyrimidin-3-yl]methyl]piperidine-1-carbonyl]-3-phenyl-piperidine-1-carboxylate] | 274
18 | CC(C)(C)OC(=O)N1CC[C@@H](C(=O)N2CCC(O)(Cn3cnc4sccc4c3=O)CC2)[C@H](c2ccccc2)C1 [EXAMPLE 2, tert-butyl (3R,4R)-4-[4-hydroxy-4-[(4-oxothieno[2,3-d]pyrimidin-3-yl)methyl]piperidine-1-carbonyl]-3-phenyl-piperidine-1-carboxylate] | 128
19 | O=C([C@@H]1CCNC[C@H]1c1ccccc1)N1CCC(O)(Cn2cnc3c(ccn3-c3ccc(F)cc3)c2=O)CC1 [EXAMPLE 130, 7-(4-fluorophenyl)-3-[[4-hydroxy-1-[(3R,4R)-3-phenylpiperidine-4-carbonyl]-4-piperidyl]methyl]pyrrolo[2,3-d]pyrimidin-4-one] | 37.7
20 | CC(C)CN1CC[C@@H](C(=O)N2CCC(O)(Cn3cnc4c(ccn4-c4ccccc4)c3=O)CC2)[C@H](c2ccccc2)C1 [EXAMPLE 163, 3-[[4-hydroxy-1-[(3R,4R)-1-isobutyl-3-phenyl-piperidine-4-carbonyl]-4-piperidyl]methyl]-7-phenyl-pyrrolo[2,3-d]pyrimidin-4-one] | 108
21 | COc1cc(-n2ccc3c(=O)n(CC4(O)CCN(C(=O)[C@@H]5CCNC[C@H]5c5ccccc5)CC4)cnc32)ccc1F [EXAMPLE 157, 7-(4-fluoro-3-methoxy-phenyl)-3-[[4-hydroxy-1-[(3R,4R)-3-phenylpiperidine-4-carbonyl]-4-piperidyl]methyl]pyrrolo[2,3-d]pyrimidin-4-one] | 39.3
22 | O=C([C@@H]1CCNC[C@H]1c1ccccc1)N1CCC(O)(Cn2cnc3c(ccn3-c3ccc(Cl)cc3)c2=O)CC1 [EXAMPLE 143, 7-(4-chlorophenyl)-3-[[4-hydroxy-1-[(3R,4R)-3-phenylpiperidine-4-carbonyl]-4-piperidyl]methyl]pyrrolo[2,3-d]pyrimidin-4-one] | 41.2
23 | O=C([C@@H]1CCNC[C@H]1c1ccccc1)N1CCC(O)(Cn2cnc3c(ccn3-c3ccccn3)c2=O)CC1 [EXAMPLE 104, 3-[[4-hydroxy-1-[(3R,4R)-3-phenylpiperidine-4-carbonyl]-4-piperidyl]methyl]-7-(2-pyridyl)pyrrolo[2,3-d]pyrimidin-4-one] | 394
24 | CC(=O)N1CC[C@@H](C(=O)N2CCC(O)(Cn3cnc4c(ccn4-c4ccc(F)cc4)c3=O)CC2)[C@H](c2ccccc2)C1 [EXAMPLE 166, 3-[[1-[(3R,4R)-1-acetyl-3-phenyl-piperidine-4-carbonyl]-4-hydroxy-4-piperidyl]methyl]-7-(4-fluorophenyl)pyrrolo[2,3-d]pyrimidin-4-one] | 102
25 | COc1ccc(-n2ccc3c(=O)n(CC4(O)CCN(C(=O)[C@@H]5CCN(C)C[C@H]5c5ccccc5)CC4)cnc32)cc1 [EXAMPLE 151, 3-[[4-hydroxy-1-[(3R,4R)-1-methyl-3-phenyl-piperidine-4-carbonyl]-4-piperidyl]methyl]-7-(4-methoxyphenyl)pyrrolo[2,3-d]pyrimidin-4-one] | 52.4
